Earlier results, collected in patent US20260345654A1, “2,8-DIHYDROXYQUINOLINE GLUCURONIDE DERIVATIVES WITH ENHANCED PROPERTIES FOR USE AS ANTICANCER, ANTIVIRAL, ANTIMICROBIAL, AND OTHER THERAPEUTIC APPLICATIONS” (priority 2023, published 2026).

Assays:
tumor cells = conditions: addition of docosahexaenoic acid (DHA); Ding 2006; cited from earlier work
[1] = test system: viral attachment to ACE receptor; conditions: COVID 19; copper chelation not required; cited from earlier work
[2] = Japanese population, 1970's; cited from earlier work
[3] = test system: A2780, A549 and MDA-MB-231 cells; conditions: addition of Cu^+2 to the media; cited from earlier work
cancer cells = conditions: Zhai 2010; Oliveri 2012; cited from earlier work

Oc1c(I)cc(Cl)c2cccnc12 [CQ, 5-chloro-7-iodo-8-hydroxyquinoline]
anticancer activity with omega fatty acids (tumor cells): increase synergistically | antiviral activity mechanism [1]: blocking viral attachment to ACE receptor | serious side effect [2]: CQ-associated subacute myelo-optic neuropathy | cytotoxicity change with addition of Cu^+2 [3]: significantly increased the cytotoxicity | effect of copper on anti-cancer activity (cancer cells): enhancer or prerequisite of the anti-cancer activity
